Measured values taken from ChEMBL document CHEMBL1129306, “3-((4-(4-Chlorophenyl)piperazin-1-yl)-methyl)-1H-pyrrolo-2,3-b-pyridine: an antagonist with high affinity and selectivity for the human dopamine D4 receptor” (J Med Chem, 1996).

Columns and labels:
D(3) dopamine receptor = D(3) dopamine receptor (Homo sapiens, UniProt P35462); test: biochemical
Description: Binding affinity towards cloned human Dopamine receptor D3 stably expressed in CHO cells was evaluated using [3H]spiperone as radioligand

D(4) dopamine receptor = molecular target: T1, D(4) dopamine receptor (Homo sapiens, UniProt P21917); test: biochemical
T1 sequence (P21917 whole entry): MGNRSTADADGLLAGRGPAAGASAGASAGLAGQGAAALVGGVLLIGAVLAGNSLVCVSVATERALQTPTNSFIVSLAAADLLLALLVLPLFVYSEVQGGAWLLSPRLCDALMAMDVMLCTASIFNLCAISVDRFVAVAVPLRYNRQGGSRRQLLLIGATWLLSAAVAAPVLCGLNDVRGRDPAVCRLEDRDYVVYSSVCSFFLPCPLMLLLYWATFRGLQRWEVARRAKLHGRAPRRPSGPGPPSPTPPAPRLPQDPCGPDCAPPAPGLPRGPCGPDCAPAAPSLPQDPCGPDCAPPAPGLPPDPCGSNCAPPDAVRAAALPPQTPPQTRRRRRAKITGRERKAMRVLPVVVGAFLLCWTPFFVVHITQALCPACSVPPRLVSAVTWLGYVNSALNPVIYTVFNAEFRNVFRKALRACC
Description: Binding affinity towards cloned human Dopamine receptor D4 stably expressed in CHO cells was evaluated using [3H]spiperone as radioligand

Sequence of D(3) dopamine receptor (P35462 whole entry): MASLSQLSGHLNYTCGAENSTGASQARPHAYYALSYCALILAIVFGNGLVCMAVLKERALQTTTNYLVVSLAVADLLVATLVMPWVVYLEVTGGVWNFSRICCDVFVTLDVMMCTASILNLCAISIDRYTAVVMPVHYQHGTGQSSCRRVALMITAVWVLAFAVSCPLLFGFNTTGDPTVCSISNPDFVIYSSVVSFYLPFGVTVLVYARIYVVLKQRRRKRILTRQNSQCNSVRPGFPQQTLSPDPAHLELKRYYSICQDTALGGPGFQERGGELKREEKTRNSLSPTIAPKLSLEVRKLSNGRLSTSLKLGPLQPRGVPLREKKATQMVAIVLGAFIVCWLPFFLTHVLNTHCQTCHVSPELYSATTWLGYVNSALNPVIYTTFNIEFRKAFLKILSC

| Compound | Ki (D(3) dopamine receptor) [µM] | Ki (D(4) dopamine receptor) [µM] |
| --- | --- | --- |
| OC1(c2ccc(Cl)cc2)CCN(Cc2c[nH]c3ccccc23)CC1 | 0.1 | 0.22 |
| CC1CCN(Cc2c[nH]c3ccccc23)CC1 | 6.7 | 0.57 |
| c1ccc2c(CN3CCCCC3)c[nH]c2c1 | > 3.7 | > 2.6 |
| c1ccc(C2CCN(Cc3c[nH]c4ccccc34)CC2)cc1 | 0.095 | 0.025 |
| c1ccc(N2CCN(Cc3c[nH]c4ccccc34)CC2)cc1 | 0.28 | 0.008 |
| Ic1ccc(N2CCN(Cc3c[nH]c4ncccc34)CC2)cc1 | > 4.5 | 0.00051 |
